Source: patent US5143938A, “Propanamines, their pharmacological properties and their application for therapeutic in particular antidiarrheal, purposes” (Jouveinal S.A., priority 1990, dated 1992)

Experiments:
[1] = Antidiarrheal activity in rats: inhibition of castor oil-induced diarrhea; assay type: in vivo
Procedure: This test is performed by studying the activity of the test compounds with respect to the diarrheaphenomenon caused in animals by the administration of castor oil.
The method consists in administering the test product in solution orally, one hour before the administration, also oral, of 1.0 ml of castor oil per animal.
The animals are then observed, and the number of rats which emit liquid stools is determined on an all-or-nothing basis every hour during the seven hours following administration of the diarrheal agent.

[2] = Activity with respect to gastrointestinal transit in rats (semi-solid charcoal meal); assay type: in vivo; settings: for Activity with respect to intestinal transit, percentage change relative to the controls / effect on intestinal transit, in words: 30 mg/kg oral; for Activity with respect to intestinal transit, percentage change relative to the controls: one hour before meal, positive = accelerated, negative = slowed down
Procedure: The test is carried out according to the technique described by Green A. F., J. Pharmacol., 1959, 14, 26-34. It consists in determining in rats the distance travelled in the animal's intestine by a semi-solid meal after a specified time.
The test products are administered orally one hour before gavage of the animal with a semi-solid meal containing vegetable charcoal as a tracer. 15 minutes after the administration, the animal is sacrificed and the distance travelled in the intestine by the meal is expressed in relation to the total length.
This ratio, for the treated animals, is compared with that observed in control animals receiving only the meal.
In this test, the products of the invention were administered on the basis of 30 mg/kg and the results expressed as a percentage change relative to the controls, the ratio being positive when transit is accelerated and negative when it is slowed down; […]

[3] = mouse, in vivo
in vivo = settings: mouse, po
[4] = Rattus norvegicus, po, 3 h; read-out: ED 50 at 3 h., antidiarrheal activity

| Structure (SMILES) | ED50 [1, 4] [mg/kg] | Activity with respect to intestinal transit, percentage change relative to the controls [2] | also measured |
| --- | --- | --- | --- |
| CCC(CCC1(c2cc(OC)c(OC)c(OC)c2)OCCO1)(NC)c1ccc(C(F)(F)F)cc1 (stereo not drawn) [Example 3.f, 2-[3-N-Methylamino-3-(4-trifluoromethylphenyl)-pentan-1-yl]-2-(3,4,5-trimethoxyphenyl)-1,3-dioxolane] | 6 | -17% |  |
| CCC(CCC(=O)c1cc(OC)c(OC)c(OC)c1)(c1ccc(C)cc1)N(C)C (stereo not drawn) [Example 9.b.2, 4-N,N-dimethylamino-4-(4-methylphenyl)-1-(3,4,5-trimethoxyphenyl)-hexan-1-one] | 2 | -14% |  |
| CCC(CCC(=O)c1ccc(Cl)c(Cl)c1)(c1ccccc1)N(C)C (stereo not drawn) [Example 9.g, 1-(3,4-dichlorophenyl)-4-N,N-dimethylamino-4-phenyl-hexan-1-one] | 3 | -25% |  |
| CN(C)C(=O)C(CCN1CCC(O)(c2ccc(Cl)cc2)CC1)(c1ccccc1)c1ccccc1 [Loperamide, 4-(4-chlorophenyl)-4-hydroxy-N,N-dimethyl-α,α-diphenyl-1-piperidinebutanamide, reference compound] |  |  | ED50 ([1]; Rattus norvegicus, po, 3 h, read-out: ED 50 at 3 h., antidiarrheal activity): 0.2 mg/kg; ED50 ([2]; Rattus norvegicus, po, read-out: ED50 slowing down transit by 50%): 1.79 mg/kg; toxicity at the administration doses, in words [3]: too toxic; TD50 (in vivo): 75 mg/kg |
| CCC(CCC(=O)c1cc(OC)c(OC)c(OC)c1)(c1ccc(Cl)cc1)N(C)C (stereo not drawn) [Example 9.a, 4-(4-chlorophenyl)-4-N,N-dimethylamino-1-(3,4,5-trimethoxyphenyl)-hexan-1-one] | 6 | -15% |  |
| CCC(CCC1(c2cc(OC)cc(OC)c2)OCCO1)(NC)c1ccccc1 (stereo not drawn) [Example 3.c, 2-(3-N-methylamino-3-phenyl-pentan-1-yl)-2-(3,5-dimethoxyphenyl)-1,3-dioxolane] | 16 | -3% | effect on intestinal transit, in words [2]: zero |
| CCC(CCC(=O)c1cc(OC)c(OC)c(OC)c1)(c1ccc(C(F)(F)F)cc1)N(C)C (stereo not drawn) [Example 9.c, 4-N,N-dimethylamino-4-(4-trifluoromethvlphenvl)-1-(3,4,5-trimethoxyphenyl)-hexan-1-one] | 15 | +2% | effect on intestinal transit, in words [2]: zero |
| CCC(CCC1(c2ccccc2)SCCS1)(c1ccccc1)N(C)C (stereo not drawn) [Example 12, 2-(3-N,N-dimethylamino-3-phenyl-pentan-1-yl)-2-phenyl-1,3-dithiolane] | 23.1 | -12% |  |
| CN1CC[C@]23c4c5ccc(O)c4O[C@H]2[C@@H](O)C=C[C@H]3[C@H]1C5 [Morphine, reference compound] |  |  | ED 50 at 3 h., antidiarrheal activity ([1]; oral, one hour before 1.0 ml castor oil; inhibition of effect in 50% of animals at 3 h): 0.83 mg/kg; ED50 slowing down transit by 50% ([2]; oral, dose at which activity is -50%): 10 mg/kg |
| C=CCN(C)C(CC)(CCC(=O)c1ccccc1)c1ccccc1 (stereo not drawn) [Example 10, N-allyl-1,4-diphenyl-4-N-methylamino-hexan-1-one] | 24.2 | -6% |  |
